# Experiments:
# [1] = tested on: Day-3 osteoblasts; test: Fibronectin fibrillogenesis by immunocytochemistry; assay type: cell-based, rat; details: 10 μM for 24 hr
# Protocol: (§1) Fibronectin (Fn) plays an important role in the regulation of adhesion, migration, and maturation of osteoblasts. Fn fibrillogenesis is involved in the process of bone mineralization. The effect of Indazole 1 on Fn fibrillogenesis in cultured osteoblasts was examined. The immobilized form of fibrillogenesis from the endogenously released Fn by monolayer Day 3˜5 osteoblasts was studied using immunocytochemistry. Incubation of Day-3 osteoblasts with Indazole 1 (10 μM) for 24 hr increased extracellular Fn assembly. Flow cytometry was used to analyze the effect of Indazole 1 on the surface expression of α5 and β1 integrins. […] On the other hand, the collagen synthesis was increased by Indazole 1 only at a higher concentration of 10 μM.
# [2] = tested on: osteoclasts; test: Assay of bone resorption of osteoclast; assay type: cell-based, rat; details: 3-day incubation after removal of M-CSF and sRANKL, versus control
# Protocol: Assay of bone resorption of osteoclast: Osteoclast precursors were isolated from rat long bones as mentioned above. The cells were re-suspended in a complete DMEM medium and plated into a calcium phosphate apatite-coated 24-well plate, OAAS (Oscotec, OCT USA Inc.) at 1×10^6 cells/0.5 ml/well. The cells were cultured for 5 days in the presence of M-CSF (20 ng/ml) plus sRANKL (50 ng/ml). Indazole 1 was injected daily for additional 3 days in the absence of M-CSF and sRANKL. Culture was terminated on day 8 and the remaining cells in the plate were lysed using 1 N NaOH. Five images per well were obtained using an inverted microscope (200×), and resorbed area was measured using an image analyzer. Local injection Male SD rats weighing 70–88 gm were used. Implantation of a cannula (22G) was done from the posteriolateral side into the proximal tibial metaphysis in both limbs of rats anesthetized with pentobarbital. The cannula had its outer end in the subcutaneous tissue. Indazole 1 was percutaneously injected through the cannula into the proximal tibia once/day for 1 week. The same concentration of DMSO diluted with normal saline was injected into the right side for comparison. On day 14, the rats were sacrificed and tibiae were fixed in 10% formaldehyde for 48 h at 4° C. The effect of Indazole 1 on resorption activity of osteoclasts was also examined. […]
# [3] = tested on: Male SD rats; test: Local injection into proximal tibia, bone histomorphometry (bone growth); assay type: in vivo, rat
# Protocol: Assay of bone resorption of osteoclast: Osteoclast precursors were isolated from rat long bones as mentioned above. The cells were re-suspended in a complete DMEM medium and plated into a calcium phosphate apatite-coated 24-well plate, OAAS (Oscotec, OCT USA Inc.) at 1×10^6 cells/0.5 ml/well. The cells were cultured for 5 days in the presence of M-CSF (20 ng/ml) plus sRANKL (50 ng/ml). Indazole 1 was injected daily for additional 3 days in the absence of M-CSF and sRANKL. Culture was terminated on day 8 and the remaining cells in the plate were lysed using 1 N NaOH. Five images per well were obtained using an inverted microscope (200×), and resorbed area was measured using an image analyzer. Local injection Male SD rats weighing 70–88 gm were used. Implantation of a cannula (22G) was done from the posteriolateral side into the proximal tibial metaphysis in both limbs of rats anesthetized with pentobarbital. The cannula had its outer end in the subcutaneous tissue. Indazole 1 was percutaneously injected through the cannula into the proximal tibia once/day for 1 week. The same concentration of DMSO diluted with normal saline was injected into the right side for comparison. On day 14, the rats were sacrificed and tibiae were fixed in 10% formaldehyde for 48 h at 4° C. Bone histomorphometry: After formalin fixation of tibia was completed, the tibiae were then decalcified in 0.5 N hydrochloric acid, dehydrated in an ascending series of ethanol solution and acetone, and embedded in paraffin. Serial sections (5 μm) were cut longitudinally and stained with Mayer's hematoxylin-eosin solution (Yang et al. (1993) Calcif Tissue Int 52:57–61). Images of the growth plate and proximal tibia were photographed using a photoMicroGraphic Digitize integrate System (MGDS; Total-Integra Technology Co., Ltd., Taipei, Taiwan). Bone volume measurements were performed on the whole secondary spongiosa, which is located under the primary spongiosa and characterized by a network of larger trabeculae. Bone volumes were calculated using an image analysis software. All measurements were done in a single-blind fashion. Bone growth: Male young rats (SD) weighing 70–90 gm were divided into six groups. The average weight of the rats in each group was 73.9±1.1 gm. Indazole 1 was dissolved in DMSO and diluted with saline to a final concentration of 10 μM. One of the six groups was a control group, and the other groups were punctuated with a needle cannula alone, injected with a vehicle using a needle cannula (day 1, once), injected with Indazole 1 (day 1, once), injected with a vehicle using a needle cannula (days 1–7, daily), and injected with Indazole 1 (days 1–7, daily), respectively. […] Trabecular bone in the secondary spongiosa increased by 90% after local injection of Indazole 1 for 7 days.
# [4] = tested on: α5 and β1 integrins; test: Flow cytometry of surface expression of integrins; assay type: cell-based, rat; details: treatment for 24 hr
# Protocol: as §1
# [5] = tested on: ovariectomized adult female rats; test: Biomechanical three-point bending test of femurs of OVX rats; assay type: in vivo, rat
# Protocol: Ovariectomy and cut of sciatic nerve: Ovariectomy and cut of sciatic nerve were performed in adult female and male rats (3 month-old), respectively. After surgery, the rats were injected with Indazole 1 (i.p., 1 mg/Kg) or a vehicle daily for 4 weeks. On the day following the last injection, the rats were sacrificed and their tibia and femur were removed. Biomechanical three-point bending test: Mechanical properties of bone tissues were measured via a three-point bending test using a MTS-858 testing machine (MTS System Inc., Minneapolis, Minn.). The span of two support points was 20 millimeters and the deformation rate was 1 mm/min. Load/deformation curves were acquired by Team 490 software (version 4.10, Nicolet Instrument Technologies Inc., Madison, Wis.). Sigma Plot 6.0 software (SPSS Inc., Chicago, Ill.) was used to calculate extrinsic material properties of bone samples, including maximal load, ultimate load, energy to maximal load, energy to ultimate load, and linear stiffness. Energy to maximal load and energy to ultimate load were calculated as the areas under the load/deforming curves. Stiffness was calculated as the slope of the linear portion of the load/deformation curves. The cross-sectional moment of inertia was calculated under the assumption that the cross-sections were elliptically shaped (Turner et al., The effects of fluoridated water on bone strength. Orthop Res (1992) 10: 581–587). Maximal stress, ultimate stress, and elastic modulus (Young's modulus) were calculated using the methods described in Turner et al., Basic biomechanical measurements of bone: a tutorial, Bone (1993) 14:595–608.
# [6] = femurs, OVX rats, i.p. 1 mg/kg daily for 4 weeks
compound,measurement,setting,value
"OCc1ccc(-c2nn(Cc3ccccc3)c3ccccc23)o1 [Indazole 1, 1-benzyl-3-(5′-hydroxymethyl-2′-furyl)-indazole]",extracellular Fn assembly,[1],increased
same,resorption activity of osteoclasts,[2],significantly inhibited
same,effect on tibia length,[3]; local injection,not significantly affected
same,Trabecular bone in the secondary spongiosa increased by,[3]; local injection for 7 days,90%
same,bone volume of the secondary spongiosa,"[3]; local injection into proximal tibia, 0.1 nmole, daily for 7 days, then 7 further days, young male rats",significantly increased
same,Tibia length,"[3]; local injection, n=9",3.32±0.02 cm
same,cell surface expression of α5 and β1 integrins,[4],increased
same,Maximal load,[5]; [6],100.5 ± 3.0 N
same,Ultimate load,[5]; [6],79.8 ± 3.3 N
same,Ultimate stress,[5]; [6],14.6 ± 2.5 Mpa
same,ultimate stress and Young's modulus of femurs compared with sham-operated controls,[5]; treated OVX rats,only slightly lower

# Reference: patent US7160916B2, “Method of increasing bone density or treating osteoporosis” (Yung Shin Pharmaceutical Ind. Co., Ltd., priority 2003, dated 2007)
